Patent publication US9321796B2, “Galactopyranosyl derivatives useful as medicaments” (Universiteit Gent, priority 2012, dated 2016)

Key:
[1] = system: collagen-induced arthritis (CIA) and experimental auto-immune encephalomyelitis (EAE); details: CIA and EAE in mice; cited from earlier work
iNKT cells [2] = test: In vivo activation of iNKT cells: serum cytokines after intraperitoneal glycolipid injection; set-up: species or system C57BL/6 mice; details: 16 hours after intraperitoneal injection of 5 μg glycolipid
Experimental: Glycolipids from this invention were synthesized according to the procedure of example 1. α-C-GalCer was kindly provided by Aaron Diamond AIDS Research Center (New York, USA) and the NIH Tetramer Core Facility. Lyophilized glycolipids were dissolved in pure dimethylsulfoxide (DMSO) (Sigma) at a 10 mg/mL concentration and stored at −20° C. Glycolipids were solubilized by adding phosphate buffer saline (PBS) (Invitrogen) or a standard vehicle (96 mg/mL sucrose, 10 mg/mL sodium deoxycholate, 0,05% Tween 20), warming to 80° C. for 20 minutes, and then sonication for 10 minutes.
(§1) For in vivo activation of iNKT cells C57BL/6 mice were either intraperitoneally injected with 5 μg glycolipid (dissolved in PBS) or intravenously with 6·10^5 or 1·10^4 glycolipid pulsed BMDCs.
In order to assess the antigenicity of the carbamate-containing galactopyranosyl compounds of example 1 and their ability to induce Th1-skewing, mice were bled at 16 hours after intraperitoneal glycolipid exposure because this is known to afford peak levels of IFN-y, the hallmark Th1 cytokine. […] IFN-y production in response to glycolipid dependent iNKT cell activation is known to be dependent on IL-12^10-12, which was therefore analyzed.

[3] = biological target: T1, TCR / mCD1d-glycolipid complex (Mus musculus, UniProt P11609); test: Surface plasmon resonance: TCR binding to mCD1d-glycolipid complexes; details: SPR, 25° C., Langmuir 1:1 model; read-out: KD
T1 sequence (P11609 19-297): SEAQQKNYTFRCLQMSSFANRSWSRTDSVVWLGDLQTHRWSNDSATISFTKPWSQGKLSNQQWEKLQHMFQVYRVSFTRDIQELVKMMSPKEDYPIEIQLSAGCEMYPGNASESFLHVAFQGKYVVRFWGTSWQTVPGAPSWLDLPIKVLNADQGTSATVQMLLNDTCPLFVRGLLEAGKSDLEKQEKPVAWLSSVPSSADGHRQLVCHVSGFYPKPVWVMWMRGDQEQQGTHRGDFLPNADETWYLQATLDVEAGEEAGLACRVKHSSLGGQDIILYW
T1 sequence (P01887 21-119 partner): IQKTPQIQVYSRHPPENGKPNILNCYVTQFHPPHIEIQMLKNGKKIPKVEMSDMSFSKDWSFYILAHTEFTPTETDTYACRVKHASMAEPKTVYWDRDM
Experimental: SPR studies were conducted using a Biacore 3000 (Biacore). Glycolipids were dissolved at 1 mg/ml in DMSO and before loading were diluted to 0.25 mg/ml with vehicle solution (50 mM Tris-HCl pH 7.0, 4.8 mg/ml sucrose, 0.5 mg/ml deoxycholate and 0.022% Tween-20), heated for 20 minutes at 80° C. After cooling 1 μg of each lipid was incubated with 10 μg enzymatically biotinylated mCD1d overnight at room temperature. In one embodiment, 400-600 response units (RU) of mCD1d-glycolipid complexes were immobilized onto a CA capture chip (Biacore). A reference surface was generated in another flow channel with unloaded mCD1d immobilized at RU of 500. During the association phase, a series of increasing concentrations of TCR (in 10 mM HEPES, 150 mM NaCl, 3.0 mM EDTA, pH 7.4) in duplicate were injected for 80 seconds and the dissociation phase (running buffer only) was monitored over 45 minutes. Experiments were carried out at 25° C. with a flow rate of 30 μl/min and performed at least two to three times, each time with a different batch of TCR preparation. Kinetic parameters were calculated after subtracting the response to mCD1d molecules in the reference channel, using a simple Langmuir 1:1 model in the BIA evaluation software version 4.1. One representative sensorgram for each lipid is shown. […]

iNKT cells [4] = test: In vivo cytokine secretion after intravenous injection of glycolipid-pulsed BMDC; set-up: species or system C57BL/6 mice
Experimental: as §1
(§2) Next we examined if the glycolipid pulsed BMDC behave similarly in vivo. For cytokine analysis we bled the mice at several time points after injection. We focused on IFN-γ and IL-12 secretion.
(§3) In order to determine if the new glycolipids can also mimic the anti-metastatic activity of NU-α-GalCer, we examined them in the B16 lung melanoma model. […] As little as 10,000 pulsed BMDC were enough to exert this marked tumor response. To analyze if these anti-tumor results still correspond to strong cytokine responses mice were bled 16 hours after injection of 10,000 pulsed bone marrow dendritic cells. […] Strikingly, the IL-12 results were not different between the 2 doses in contrast to the IFN-γ production, which was more dose-dependent (FIG. 9). This might indicate that other cytokines such as IL-18, which is also necessary for the induction of IFN-γ by NK cells might play an additional role in iNKT cell dependent Th1 polarization.

human iNKT cells = test: Cytokine secretion in cultures of purified human iNKT cells; assay type: cell-based; details: glycolipid 100 ng/ml pulsed PBMCs, 24 hours
Experimental: Human iNKT cells from healthy adult individuals were sorted and expanded. PBMCs were isolated by means of density centrifugation, incubated overnight in the presence of indicated glycolipids (100 ng/ml), washed and irradiated (40 Gy). Subsequently, 5×10^4 iNKT cells were stimulated with 10^5 glycolipid pulsed autologous PBMCs in RPMI 1640 media supplemented with 10% human AB serum (Lonza), 1% sodium pyruvate, 1% nonessential amino acids and 1% penicillin/streptomycin (all from Invitrogen). Supernatants were collected after 24 hours of culture and cytokine levels were determined by means of cytometric Bead Arrays (CBA) following the manufacturer's instructions (BD).
as §2

B16 melanoma cells = test: B16 melanoma lung metastasis model with glycolipid-loaded BMDC; assay type: in vivo, mice; details: 10,000 glycolipid pulsed BMDC
Experimental: (§4) The murine iNKT hybridoma N38-2C12 (Vα14Vβ8.1/8.2b) was provided by Brown University, Providence, Rhode Island, USA). Cells were cultured in DMEM Sigma) supplemented with 10% fetal calf serum (Invitrogen), 1% glutamine (Sigma), 1% penicillin streptomycin (Sigma), and 2-mercapto-ethanol (Sigma) (hereinafter called cDMEM). B16 melanoma cells were cultured in advanced RPMI (Sigma) supplemented with 10% fetal calf serum (Invitrogen), 1% glutamine (Sigma) and 1% penicillin streptomycin (Sigma). They were harvested using cell dissociation buffer, which was washed away twice first using the medium and second with PBS. 400,000 cells were intravenously (IV) injected within 30 minutes after harvest into the tail vein.
as §3, with “This might indicate that other cytokines such as IL-18, which is also necessary for the induction of IFN-γ by NK cells might play an additional role in iNKT cell dependent Th1 polarization.” left out

[5] = system: spleen DCs (CD11c CD11b double positive); test: Co-stimulatory molecule expression on spleen dendritic cells after glycolipid-pulsed BMDC; assay type: in vivo, C57/BL6 mice; details: 600000 glycolipid-pulsed BMDC
Excerpt: Spleen cells were isolated. Lymphocytes were isolated at the interface and washed, depleted with an anti-CD3 kit (Miltenyi Biotec, Sunnyvale, […]) and re-suspended in a staining buffer containing saturating amount of anti-Fcy Receptor type II/type III monoclonal antibodies (Miltenyi). Hereafter cells were stained with fluorochrome-conjugated mAbs (all from Bioscience) directed against the described antigens. Live cells (exclusion with DAPI) were acquired on a FACSCanto (BD) flow cytometer and analyzed using FlowJo (Tree Star) software.
Expression of co-stimulatory markers at the cell surface is linked to cytokine polarization because this determines the degree of activation of by-stander cells such as NK cells, whose IFN-y production is responsible for Th1 polarized cytokine profile. For α-C-GalCer, it has been shown that expression of CD40 is essential for IL-12 and subsequent NK cell dependent IFN-γ production. In contrast, OCH, a Th2 polarizing antigen, is not able to induce CD40 expression at the surface of DCs. Additionally OX40L up-regulation by dendritic cells (DC) has been found important for α-GalCer dependent tumour killing.
Glycolipid stimulation of iNKT cells leads to CD28 expression, and induces CD80 and CD86 expression at the dendritic cell surface, which is required for induction of IL-12 by dendritic cells. […]

[6] = system: murine iNKT hybridoma N38-2C12; test: Co-culture of glycolipid-pulsed BMDC with iNKT cell hybridoma 2C12, IL-2 by ELISA; assay type: cell-based; details: BMDC loaded 20 hours with 100 ng/mL glycolipid, 16 hours co-culture with 2C12 cells
Experimental: as §4
For in vitro stimulation, murine iNKT hybridoma cells at 5·10^4 cells/well in 96-well plates were stimulated with the 10^5 cells/well glycolipid pulsed BMDCs in cDMEM for 4, 16 or 24 hours at […], and levels of murine IL-2 secretion were determined by ELISA.
iNKT cell polarization is a matter of debate and it has been shown uptake by different cells can also affect the outcome. To avoid these host dependent parameters we set up a simple in vitro model, which consists of co-cultures of glycolipid-pulsed bone marrow dendritic cells and an iNKT cell hybridoma (i.c. 2C12 containing a Vβ8.2 TCR). IL-2 production is used as a read-out for TCR affinity for the whole CD1d-glycolipid complex. […] To confirm this we also measured intracellular IL-2 production in 2C12 cells already 4 hours after coculture, where a similar result was obtained (FIG. 2). Because IL-2 production is a downstream event of TCR signaling we analyzed TCRβ expression.
In order to assess the antigenic activity of the triazolyl-containing galactopyranosyl compounds of example 10, bone marrow dendritic cells (BMDC) were loaded during 20 hours with 100 ng/mL glycolipid. After 16 hours of co-culture with 2C12 cells (iNKT cell hybridoma), IL-2 secretion was determined by ELISA.

[7] = 16 hours after injection of 10,000 pulsed BMDC

CCCCCCCCCCCCCCCCCCCCCCCC(=O)N[C@@H](COC1OC(CO)C(O)C(O)C1O)[C@H](O)[C@H](O)CCCCC (some centres unmarked) [OCH]
effect on Th1-mediated auto-immune diseases [1]: protective effect

CCCCCCCCCCCCCCCCCCCCCCCCCC(=O)NC(COC1OC(COC(=O)Nc2ccncc2)C(O)C(O)C1O)C(O)C(O)CCCCCCCCCCCCCC [PyrC-α-GalCer, (2S,3S,4R)-1-O-(6-O-(4pyridinylcarbamoyl)-α-D-galactopyranosyl)-2-hexa-cosylamino-octadecane-1,3,4-triol]
IL-12 production (iNKT cells [2]): significantly higher IL-12 levels than NU-α-GalCer
Kd [3]: 33 nM
IFN-γ production (iNKT cells [4]; [7]): significantly higher
IL-12 production (iNKT cells [4]; [7]): significantly higher
IL-12 secretion after 24 hours (iNKT cells [4]; 24 hours after injection of glycolipid pulsed BMDC): markedly higher than for NU-α-GalCer
IL-12 secretion (iNKT cells [4]; after injection of glycolipid pulsed BMDC): very high
IFN-γ level time course (iNKT cells [4]; several time points after injection of glycolipid pulsed BMDC): increased up to 24 hours after injection
Th1-biased cytokine secretion (more IFN-γ and IL-12 and less IL-4 and IL-13 compared to α-GalCer) (human iNKT cells): able to induce Th1-biased cytokine secretion
prevention of tumor metastasis (lung nodules) (B16 melanoma cells): still better in preventing tumor metastasis
CD40 up-regulation on spleen DCs [5]: induces early CD40 up-regulation

(2S,3S,4R)-1-O-(6-deoxy-6-(4-butyltriazol-1-yl)-α-D-galactopyranosyl)-2-hexacosylamino-octadecane-1,3,4-triol [Compound 44]
IL-2 secretion [6]: tend to induce the highest IL-2 secretion

(2S,3S,4R)-1-O-(6-deoxy-6-(4-phenyltriazol-1-yl)-α-D-galactopyranosyl)-2-hexacosylamino-octadecane-1,3,4-triol [Compound 45]
IL-2 secretion [6]: tend to induce the highest IL-2 secretion

(2S,3S,4R)-1-O-(6-deoxy-6-(triazol-1-yl)-α-D-galactopyranosyl)-2-hexacosylamino-octadecane-1,3,4-triol [non-substituted triazolyl compound]
IL-2 secretion [6]: even better in stimulating iNKT cells to release IL-2
